# “Also recorded” adds a separate entry of the source.
# Tested on: cochlear Lgr5+ progenitor cells
# Experiment: Expansion of Lgr5 cells in 3D culture, Lgr5-EGFP cells counted by flow cytometry
# Assay type: cell-based, mice
# Protocol: Neonatal Lgr5-EGFP-IRES-Cre-ER mice (The Jackson Laboratory, strain 8875) were used to analyze the effects of small molecules on cochlear stem cell expansion (see Barker et al., Nature 449, 1003-7 (2007). This strain allowed for visualization and quantification of EGFP cells.
# All animal studies were conducted under an approved institutional protocol per National Institutes of Health guidelines. Using neonatal animals, cochleae were dissected and the organ of Corti (sensory epithelium) was separated from the stria vascularis (ion transport epithelium) and the modiolus (nerve tissue). Epithelia were then collected and treated with TrypLE for 15-20 minutes to obtain single cells. The cells were then filtered ([…]) and suspended in a Matrigel (Corning) dome for 3D culture seeded at 0.5 cochlea per well.
# Expansion of Lgr5 Cells: Cells were cultured in a 3D system and bathed in a serum free 1:1 mixture of DMEM and F12, supplemented with Glutamax (GIBCO), N2, B27 (Invitrogen), EGF (50 ng/mL; Chemicon), bFGF (50 ng/mL; Chemicon), IGF-1 (50 ng/mL; Chemicon), and small molecules for seven days. Media was changed every other day. Treatments were run in triplicate or quadruplicate.
# Quantification of Cell Proliferation: Lgr5 cells were quantified after 7-10 days. Cell colonies were dissociated into single cells using TrypLE. The cells were then stained with propidium iodide (PI) and analyzed using a flow cytometer to count Lgr5-EGFP cells. The percentage of viable Lgr5 cells was plotted against the concentration in GraphPad Prism.
smiles,measurement,setting,value
CCn1cc(C(=O)O)c(=O)c2c(N)c(F)c(NC3CCCCC3)cc21 [AS1842856],expansion of cochlear Lgr5+ progenitor cells in culture,"AS1842856 425 nM, background of EFI",elicits the expansion
same,enrichment of Lgr5 cells according to percentage,"AS1842856 (425 nM) combined with VPA (1 mM), background of EFI",enriched according to percentage
same,Lgr5-GFP colony formation (images of Lgr5+ cell culture),EFI-AS1842856 alone,promotes Lgr5-GFP colony formation
same,Lgr5-GFP colony enrichment (less Lgr5-negative cells in culture),EFI-AS1842856 with VPA added,enriched when VPA is added
same,"concentration dependence of Lgr5+ cell growth, enrichment and expansion of cochlear progenitor cells","background of EFI, range of concentrations",enhances expansion of cochlear progenitor cells concentration-dependent manner; also recorded: concentration-dependent effects

# — patent publication US11617745B2, “Compositions and methods for generating hair cells by downregulating FOXO” (Frequency Therapeutics, Inc., priority 2018, dated 2023)
